Laboratory results: patent publication EP0610519B1, “ANTI-HIV DRUG” (priority 1992, dated 1994)
Like-named read-outs stand apart in the source and are kept apart here.

Experiments:
HIV (type IIIB) = assay: inhibition of budding of HIV from infected H-9 cells (reverse transcriptase activity per unit culture medium as index); format: cell-based; details: H-9 cells infected with HIV (type IIIB), 15 minutes treatment, then 360 minutes culture
Description: (§1) Human lymphocyte-derived H-9 cells, infected with HIV (type IIIB), were cultured in an RPMI-1640 medium (product of Biocell Laboratories) containing wortmannin and 10% fetal bovine serum (FBS) at 37°C for 15 minutes in a CO2 incubator. The H-9 cells thus obtained were washed with an RPMI-1640 medium, and then cultured in another RPMI-1640 medium containing 10% FBS at 37°C for 360 minutes in a CO2 incubator. The reverse transcriptase activity per unit culture medium was used as an index to determine the inhibitory effect of wortmannin on the budding of HIV.
(§2) The same test as mentioned above was repeated using MS-444 instead of wortmannin.

[1] = rat, in vivo
[2] = test system: Human lymphocyte-derived H-9 cells; assay: host cell growth in the HIV budding test; details: concentration of 100 µM
Description: as §1, §2

Row | Compound | Budding of HIV (%) (HIV (type IIIB); 10 µM test compound) | Budding of HIV (%) (HIV (type IIIB); 100 µM test compound) | Budding of HIV (%) (HIV (type IIIB); 1000 µM test compound) | acute toxicity, mortality ([1]; ip, 100 mg/kg) | acute toxicity, mortality ([1]; po, 300 mg/kg) | Budding of HIV (%) (HIV (type IIIB); 0.1 µM test compound) | Budding of HIV (%) (HIV (type IIIB); 1.0 µM test compound) | Host cell growth [2]
1 | Cc1occ2c1C(=O)c1c(O)ccc(O)c1C2 [MS-444] | 95% | 82% | 20% | no rats died | no rats died | – | – | –
2 | COC[C@H]1OC(=O)c2coc3c2[C@@]1(C)C1=C(C3=O)[C@@H]2CCC(=O)[C@@]2(C)C[C@H]1OC(C)=O [Wortmannin] | 39% | – | – | – | – | 67% | 49% | not influenced
